# Assay results published in patent publication US20100009934A1, “BETA ADRENERGIC RECEPTOR AGONISTS FOR THE TREATMENT OF B-CELL PROLIFERATIVE DISORDERS” (CombinatoRx, Incorporated, priority 2008, published 2010).
# Like-named read-outs stand apart in the source and are kept apart here.
# Test system: Human Multiple Myeloma Cells (MM.1S)
# Assay: cells
# Conditions: MM1.S
# [1] = read-out: percent inhibition of cell proliferation, +10 ng/ml IL-6, Salmeterol […], DEX (μM) by row: r9 0.15, r10 0.076, r11 0.038, r12 0.019, r13 0.0096, r14 0
# [2] = read-out: percent inhibition of cell proliferation, salmeterol […], 10 ng/mL IL-6
# [3] = read-out: percent inhibition of cell proliferation, salmeterol […], no IL-6
smiles,measurement,setting,value
OCc1cc(C(O)CNCCCCCCOCCCCc2ccccc2)ccc1O (stereo not shown) [salmeterol],inhibition at 32 pM,[1],22%
same,inhibition at […],[1],52%
same,inhibition at 32 pM,"read-out: percent inhibition of cell proliferation, no IL-6, Salmeterol […], DEX (μM) by row: r9 0.15, r10 0.076, r11 0.038, r12 0.019, r13 0.0096, r14 0",21%
same,inhibition at 100 fM,"read-out: percent inhibition of cell proliferation, salmeterol 0.1 pM, 10 ng/mL IL-6",19%
same,inhibition at 100 fM,"read-out: percent inhibition of cell proliferation, salmeterol 0.1 pM, no IL-6",11%
same,inhibition at 200 fM,"read-out: percent inhibition of cell proliferation, salmeterol 0.2 pM, 10 ng/mL IL-6",30%
same,inhibition at 200 fM,"read-out: percent inhibition of cell proliferation, salmeterol 0.2 pM, no IL-6",25%
same,inhibition at 400 fM,"read-out: percent inhibition of cell proliferation, salmeterol 0.4 pM, 10 ng/mL IL-6",36%
same,inhibition at 400 fM,"read-out: percent inhibition of cell proliferation, salmeterol 0.4 pM, no IL-6",30%
same,inhibition at […],"read-out: percent inhibition of cell proliferation, salmeterol 160 pM, 10 ng/mL IL-6",59%
same,inhibition at […],"read-out: percent inhibition of cell proliferation, salmeterol 160 pM, no IL-6",50%
same,inhibition at […],"read-out: percent inhibition of cell proliferation, salmeterol 320 pM, 10 ng/mL IL-6",66%
same,inhibition at […],"read-out: percent inhibition of cell proliferation, salmeterol 320 pM, no IL-6",59%
same,inhibition at 25 fM,[2],2.8%
same,inhibition at 51 fM,[2],8.6%
same,inhibition at 810 fM,[2],54%
same,inhibition at 25 fM,[3],5%
same,inhibition at 51 fM,[3],6.7%
same,inhibition at 810 fM,[3],43%
